The text below walks through data of patent publication US11142554B2 (MASSACHUSETTS INSTITUTE OF TECHNOLOGY, priority 2015, dated 2021).

Residues, ends and D or L forms follow the SMILES beside them. A value given as a limit tells only on which side of the number the result lay.

The target in assay [1] is KSBcl-2. Briefly: receptor | KSBcl-2.
Assay [2] concerns the target T1, Bcl-xL (Homo sapiens, UniProt Q07817). The experiment in a line: receptor | Bcl-xL.
Target sequence in this assay (Q07817 whole entry, looked up): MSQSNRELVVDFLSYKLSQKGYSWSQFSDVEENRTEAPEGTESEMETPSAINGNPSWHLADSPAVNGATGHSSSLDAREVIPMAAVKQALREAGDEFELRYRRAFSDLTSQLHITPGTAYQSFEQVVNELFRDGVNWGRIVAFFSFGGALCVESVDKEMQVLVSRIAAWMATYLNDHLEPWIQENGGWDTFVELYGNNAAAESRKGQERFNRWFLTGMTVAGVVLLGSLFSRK
For assay [3], the target named is T2, Bcl-2 (Homo sapiens, UniProt P10415). The experiment in a line: receptor | Bcl-2.
Target sequence in this assay (P10415 whole entry, looked up): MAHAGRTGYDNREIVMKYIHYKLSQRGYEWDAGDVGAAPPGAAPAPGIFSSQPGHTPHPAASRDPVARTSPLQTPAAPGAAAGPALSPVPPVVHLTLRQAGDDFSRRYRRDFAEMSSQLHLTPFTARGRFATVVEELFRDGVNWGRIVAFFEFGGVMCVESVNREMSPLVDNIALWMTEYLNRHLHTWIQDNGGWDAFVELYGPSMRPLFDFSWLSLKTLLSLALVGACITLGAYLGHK
Assay [4] deals with Bcl-w (Homo sapiens, UniProt Q92843). The experiment in a line: receptor | Bcl-w.
Assay [5] deals with Bfl-1 (Homo sapiens, UniProt Q16548). The experiment in a line: receptor | Bfl-1.
The subject of assay [6] is Mcl-1/Myc 2640 cells. To be noted: Mcl-1/Myc 2640. How it is done: (§1) A whole-cell BH3 profiling assay was used to test the specificity of our Mcl-1-binding peptides in several cell lines with differing dependencies on Bcl-2, Mcl-1, Bcl-xL, or Bfl-1. In this assay, permeabilized cells were treated with increasing doses of BH3 peptides, and mitochondrial outer membrane permeabilization (MOMP) was monitored using the dye JC-1 (see below). Mcl-1/Myc 2640 is an engineered murine leukemia cell line overexpressing murine Mcl-1 and Myc, and Bcl-2/Myc 2924 is a similarly engineered cell line overexpressing human Bcl-2.
(§2) Assay plates were produced by serial dilution of each peptide from 200 μM to 0.2 nM using 10-fold dilutions in DTEB (Derived from Trehalose Experimental Buffer: 135 mM trehalose, 50 mM KCl, 20 μM EDTA, 20 μM EGTA, 0.1% BSA, 5 mM succinate, 10 mM HEPES-KOH pH 7.5) containing 0.005% w/v digitonin, 10 mM 2-mercaptoethanol, 2 μM JC-1, and 20 mg mL-1 oligomycin. Triplicate wells for each peptide were made for each cell line by adding 15 μL of the peptide dilutions to each well of a black, untreated 384-well plate. Control wells containing no peptide or 20 μM FCCP (carbonyl cyanide-4(trifluoromethoxy) phenylhydrazone, a chemical uncoupler of oxidative phosphorylation) were included for zero and complete depolarization, respectively. Multiple plates were produced from the same stock and frozen at −80 ° C. for later use. Frozen plates were brought to RT prior to use, cells were suspended in DTEB at a density of 1.34×10^6 cells/mL, and 15 μL of cell suspension was added to each well of the dilution series to yield wells ranging from 0.1 nM to 100 μM peptide and 20000 cells/well. Fluorescence of JC-1 aggregates was measured at 590 nm with 545 nm excitation on a Tecan Safire2 at 5 min intervals for 3 h. The area under each signal-vs-time curve was calculated and normalized to the untreated and FCCP values to produce the percent depolarization. Curves were plotted as the log [peptide] vs percent depolarization, with sigmoidal dose—response curves fitted using Graphpad PRISM 6.

Assay [7] relates to MDA-MB-231 cells. To be noted: MDA-MB-231. How it is done:
as §1, §2

The test system of assay [8] is Pfeiffer cells. The note with it: Pfeiffer. As to the method:
as §1, §2

In assay [9] the test system is Bcl-2/Myc 2924 cells. To be noted: Bcl-2/Myc 2924. As to the method: as §1, §2
For assay [10], the target named is T3, Bfl-1 (Homo sapiens, UniProt Q16548).
T3 sequence (Q16548 1-175): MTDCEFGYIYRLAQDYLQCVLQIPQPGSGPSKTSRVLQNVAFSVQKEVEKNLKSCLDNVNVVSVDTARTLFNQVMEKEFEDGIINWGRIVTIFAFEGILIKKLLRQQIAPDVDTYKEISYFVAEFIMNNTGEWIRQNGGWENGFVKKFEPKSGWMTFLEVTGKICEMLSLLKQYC
The experiment in a line: Fluorescence anisotropy direct binding of N-terminal fluorescein peptides. On the technique in general: Polarisation of emitted light reports the rotation of a fluorescent probe.

The target in assay [11] is T4, Bcl-w (Homo sapiens, UniProt Q92843).
T4 sequence (Q92843 1-193): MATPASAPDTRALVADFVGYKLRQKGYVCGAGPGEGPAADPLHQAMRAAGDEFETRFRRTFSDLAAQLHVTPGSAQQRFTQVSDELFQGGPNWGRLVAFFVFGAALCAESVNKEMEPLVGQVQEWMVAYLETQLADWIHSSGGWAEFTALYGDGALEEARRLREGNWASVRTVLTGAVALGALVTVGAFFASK
The assay is described as above.

In assay [12] the target is T2, Bcl-2. Described as above.
Target sequence in this assay (P10415 whole entry): as the sequence (P10415 whole entry, looked up) above
In assay [13] the target is T1, Bcl-xL. The assay is described as above.
Target sequence in this assay (Q07817 whole entry): as the sequence (Q07817 whole entry, looked up) above

In the case of RPEIWLTQSLQRLGDEINAYYAR [MS2], the Kd (commonly a measure of binding affinity in units of concentration) in assay [1] was < 1 nM.

As for `CC[C@H](C)[C@H](NC(=O)[C@H](CCCNC(=N)N)NC(=O)[C@H](CCCNC(=N)N)NC(=O)[C@H](CC(C)C)NC(=O)[C@H](CCC(=O)O)NC(=O)[C@H](CCC(N)=O)NC(=O)[C@@H](NC(=O)[C@H](CCSC)NC(=O)[C@H](Cc1c[nH]c2ccccc12)NC(=O)[C@@H](NC(=O)[C@H](CCC(=O)O)NC(=O)[C@@H]1CCCN1C(=O)[C@@H](N)CCCNC(=N)N)[C@@H](C)CC)[C@@H](C)O)C(=O)NCC(=O)N[C@@H](CC(=O)O)C(=O)N[C@@H](CCC(=O)O)C(=O)N[C@@H](Cc1ccccc1)C(=O)N[C@@H](CC(N)=O)C(=O)N[C@@H](C)C(=O)N[C@@H](Cc1ccc(O)cc1)C(=O)N[C@@H](Cc1ccc(O)cc1)C(=O)N[C@@H](C)C(=O)N[C@@H](CCCNC(=N)N)C(N)=O` [Bim_A2eT_I2dM], the Kd came to 83 ± 53 nM in assay [2], 210 ± 71 nM in assay [3], 260 ± 52 nM in [4] and 150 ± 69 nM in [5].

On to `CC[C@H](C)[C@H](NC(=O)[C@H](CCC(=O)O)NC(=O)[C@H](CC(=O)O)NC(=O)CNC(=O)[C@H](CC(C)C)NC(=O)[C@H](CCCNC(=N)N)NC(=O)[C@H](CCC(N)=O)NC(=O)[C@H](CC(C)C)NC(=O)[C@H](Cc1c[nH]cn1)NC(=O)[C@H](CCC(N)=O)NC(=O)[C@@H](NC(=O)[C@H](CC(C)C)NC(=O)[C@H](Cc1c[nH]c2ccccc12)NC(=O)[C@@H](NC(=O)[C@H](CCC(=O)O)NC(=O)[C@@H]1CCCN1C(=O)[C@@H](N)CCCNC(=N)N)[C@@H](C)CC)[C@@H](C)O)C(=O)N[C@@H](CC(N)=O)C(=O)N[C@@H](C)C(=O)N[C@@H](Cc1ccc(O)cc1)C(=O)N[C@@H](Cc1ccc(O)cc1)C(=O)N[C@@H](C)C(=O)N[C@@H](CCCNC(=N)N)C(N)=O` [MS3], for which the Kd in assay [4] was 340 ± 69 nM; in [5], 790 ± 140 nM.

For the molecule `CC[C@H](C)[C@H](NC(=O)[C@H](CCC(=O)O)NC(=O)[C@H](CC(=O)O)NC(=O)CNC(=O)[C@H](CC(C)C)NC(=O)[C@H](CCCNC(=N)N)NC(=O)[C@H](CCC(N)=O)NC(=O)[C@H](CC(C)C)NC(=O)[C@H](CO)NC(=O)[C@H](CCC(N)=O)NC(=O)CNC(=O)[C@H](CC(C)C)NC(=O)[C@H](Cc1c[nH]c2ccccc12)NC(=O)[C@@H](NC(=O)[C@H](CCC(=O)O)NC(=O)[C@@H]1CCCN1C(=O)[C@@H](N)CCCNC(=N)N)[C@@H](C)CC)C(=O)N[C@@H](CC(N)=O)C(=O)N[C@@H](C)C(=O)N[C@@H](Cc1ccc(O)cc1)C(=O)N[C@@H](Cc1ccc(O)cc1)C(=O)N[C@@H](C)C(=O)N[C@@H](CCCNC(=N)N)C(N)=O` [B3] (H-RPEIWLGQSLQRLGDEINAYYAR-NH2; N-terminus and C-terminus assumed), binding in assay [1] was put at a Kd of 1.43 ± 1.39 nM.

As to RPEIWITQGLRRIGDEFNAYYAR [Bim_A2eT_E2gG], the “depolarization response (in words)” value was “strong depolarization response” in [6]; “depolarization response intermediate to that of Bim and MS1” in assay [7]; “depolarization response intermediate to that of Bim and MS1” in assay [8]; “depolarization response intermediate to that of Bim and MS1” in assay [9].

Regarding `CC[C@H](C)[C@H](NC(=O)[C@H](CCCNC(=N)N)NC(=O)[C@H](CCCNC(=N)N)NC(=O)[C@H](CC(C)C)NC(=O)[C@H](CCC(=O)O)NC(=O)[C@H](CCC(N)=O)NC(=O)[C@@H](NC(=O)[C@@H](NC(=O)[C@H](Cc1c[nH]c2ccccc12)NC(=O)[C@@H](NC(=O)[C@H](CCC(=O)O)NC(=O)[C@@H]1CCCN1C(=O)[C@@H](N)CCCNC(=N)N)[C@@H](C)CC)[C@@H](C)CC)[C@@H](C)O)C(=O)NCC(=O)N[C@@H](CC(=O)O)C(=O)N[C@@H](CCC(=O)O)C(=O)N[C@@H](Cc1ccccc1)C(=O)N[C@@H](CC(N)=O)C(=O)N[C@@H](C)C(=O)N[C@@H](Cc1ccc(O)cc1)C(=O)N[C@@H](Cc1ccc(O)cc1)C(=O)N[C@@H](C)C(=O)N[C@@H](CCCNC(=N)N)C(N)=O` [Bim_A2eT], the Kd in [2] came out at 17 ± 4.8 nM; in [3], 43 ± 12 nM; in [4] it was 39 ± 9.4 nM; in assay [5], 31 ± 6.8 nM.

In turn, RPEIWMTQGLRRLGDEINAYYAR [MS1] showed a Kd in assay [1] of 2.9 ± 0.68 nM.

As for `CC[C@H](C)[C@H](NC(=O)[C@H](CCC(=O)O)NC(=O)[C@H](CC(=O)O)NC(=O)CNC(=O)[C@H](CC(C)C)NC(=O)[C@H](CCCNC(=N)N)NC(=O)[C@H](CCC(N)=O)NC(=O)[C@H](CC(C)C)NC(=O)[C@H](Cc1c[nH]cn1)NC(=O)[C@H](CCC(N)=O)NC(=O)[C@@H](NC(=O)[C@H](CC(C)C)NC(=O)[C@H](Cc1c[nH]c2ccccc12)NC(=O)[C@@H](NC(=O)[C@H](CCC(=O)O)NC(=O)[C@@H]1CCCN1C(=O)[C@H](CCCNC(=N)N)NC(C)=O)[C@@H](C)CC)[C@@H](C)O)C(=O)N[C@@H](CC(N)=O)C(=O)N[C@@H](C)C(=O)N[C@@H](Cc1ccc(O)cc1)C(=O)N[C@@H](Cc1ccc(O)cc1)C(=O)N[C@@H](C)C(=O)N[C@@H](CCCNC(=N)N)C(N)=O` [MS3], the “binding affinity to Bfl-1 (in words)” value in assay [10] is on record as “several-hundred nanomolar affinity”. The “binding affinity to Bcl-w (in words)” value in assay [11] was “several-hundred nanomolar affinity”. In addition, the “binding affinity to Bcl-2 (in words)” value in assay [12] is “micromolar affinity”. The “binding affinity to Bcl-xL (in words)” value in [13] is “micromolar affinity”. Moreover, the “depolarization response (in words)” value in assay [8] is given as “stronger response in Pfeiffer than MS1 or MS2”.

For `CC[C@H](C)[C@H](NC(=O)[C@H](CCC(=O)O)NC(=O)[C@@H]1CCCN1C(=O)[C@@H](N)CCCNC(=N)N)C(=O)N[C@@H](Cc1c[nH]c2ccccc12)C(=O)N[C@H](C(=O)N[C@H](C(=O)N[C@@H](CCC(N)=O)C(=O)N[C@@H](CCC(=O)O)C(=O)N[C@@H](CC(C)C)C(=O)N[C@@H](CCCNC(=N)N)C(=O)N[C@@H](CCCNC(=N)N)C(=O)N[C@@H](CC(C)C)C(=O)NCC(=O)N[C@@H](CC(=O)O)C(=O)N[C@@H](CCC(=O)O)C(=O)N[C@@H](Cc1ccccc1)C(=O)N[C@@H](CC(N)=O)C(=O)N[C@@H](C)C(=O)N[C@@H](Cc1ccc(O)cc1)C(=O)N[C@@H](Cc1ccc(O)cc1)C(=O)N[C@@H](C)C(=O)N[C@@H](CCCNC(=N)N)C(N)=O)[C@@H](C)O)[C@@H](C)CC` [Bim_A2eT_I3dL], the Kd in assay [2] was determined as 7.6 ± 3.8 nM; in [3], 37 ± 14 nM; in assay [4], 12 ± 2.6 nM; in assay [5], 120 ± 27 nM.

For the molecule `CC[C@H](C)[C@H](NC(=O)[C@H](CCC(=O)O)NC(=O)[C@H](CC(=O)O)NC(=O)CNC(=O)[C@H](CC(C)C)NC(=O)[C@H](CCCNC(=N)N)NC(=O)[C@H](CCCNC(=N)N)NC(=O)[C@H](CC(C)C)NC(=O)CNC(=O)[C@H](CCC(N)=O)NC(=O)CNC(=O)[C@H](CCSC)NC(=O)[C@H](Cc1c[nH]c2ccccc12)NC(=O)[C@@H](NC(=O)[C@H](CCC(=O)O)NC(=O)[C@@H]1CCCN1C(=O)[C@@H](N)CCCNC(=N)N)[C@@H](C)CC)C(=O)N[C@@H](CC(N)=O)C(=O)N[C@@H](C)C(=O)N[C@@H](Cc1ccc(O)cc1)C(=O)N[C@@H](Cc1ccc(O)cc1)C(=O)N[C@@H](C)C(=O)N[C@@H](CCCNC(=N)N)C(N)=O` [A12] (H-RPEIWMGQGLRRLGDEINAYYAR-NH2; N-terminus and C-terminus assumed), binding in [1] was characterised by a dissociation constant (Kd) of 4 ± 2.6 nM.
